From patent US20250353936A1, “CHEMICALLY MODIFIED HEPARIN” (IHP Therapeutics Inc., priority 2022, published 2025)

Key:
[1] = tested on: BxPC3-luc, clone 1F11 cells; assay: Gemcitabine sparing pancreatic cancer model, subcutaneous BxPC3-luc tumors; type: in vivo, female NSG mice; conditions: Compound C 10 mg/kg BID s.c., gemcitabine 25 mg/kg QW i.p., day 7 through day 70; FIG. 4
Protocol: Methods: Pancreatic cancer tumors were generated by subcutaneous injection of 100 μL of BxPC3-luc, clone 1F11 cells (1×10^6) in matrigel into the right flank of female NSG mice. Tumors were allowed to grow for 7 days prior to initiating treatment. At day 7 post-implant, mice were randomized into treatment groups (n=5/group) and treatment was initiated per dose route and regimen as described below:
Gemcitabine (Gem) at a low sensitizing dose was administered 25 mg/kg QW by intraperitoneal route. Compound C was administered 10 mg/kg BID by subcutaneous route. Treatments were administered from day 7 through day 70.
Body weight and tumor volume by caliper was measured weekly. At day 70 imaging was performed by administering 150 mg/kg luciferin and measuring whole body […] by IVIS imaging system. Tumors and organs were then harvested and imaged ex vivo.

P-selectin = assay: P-selectin-mediated HL-60 cell binding to immobilized P-selectin/Fc chimera; type: cell-based; conditions: HL-60 cells, best-fit values
Protocol: 96 well plates were coated with 10 μg/mL Protein A overnight, then blocked with 2% FBS for 1 hour. 2 μg/mL P-selectin/Fc chimera was bound to the Protein A for 3 hours at 4° C. HL-60 cells (2e5 cells/well, CMFDA labeled) were then layered onto the P-selectin and allowed to bind for 1 hour at room temperature. Wells were treated concurrently with test samples to determine inhibitory binding activity. After 1 hour, unbound cells were washed and bound cells lysed in a 1% Triton-X solution and read on a Fluorimeter at 480/520 nm.

| Compound | tumor growth inhibition (tumor volume by caliper) [1] | P-sel IC50 (P-selectin) [µg/mL] |
| --- | --- | --- |
| Nc1ccn([C@@H]2O[C@H](CO)[C@@H](O)C2(F)F)c(=O)n1 [Gemcitabine] | no effect on tumor growth |  |
| enoxaparin |  | 64.72 |
